Experimental data from ChEMBL document CHEMBL1147594, “Evaluation of loxoprofen and its alcohol metabolites for potency and selectivity of inhibition of cyclooxygenase-2” (Bioorg Med Chem Lett, 2004).

What was measured:
[1] = target: T1, Prostaglandin G/H synthase 1 (Homo sapiens, UniProt P23219); assay: Inhibitory activity against recombinant human prostaglandin G/H synthase 1
[2] = target: T1, Prostaglandin G/H synthase 1
Description: Inhibitory potency against Prostaglandin G/H synthase 1 in human whole blood assay

[3] = target: T2, Prostaglandin G/H synthase 2 (Homo sapiens, UniProt P35354)
T2 sequence (P35354 whole entry): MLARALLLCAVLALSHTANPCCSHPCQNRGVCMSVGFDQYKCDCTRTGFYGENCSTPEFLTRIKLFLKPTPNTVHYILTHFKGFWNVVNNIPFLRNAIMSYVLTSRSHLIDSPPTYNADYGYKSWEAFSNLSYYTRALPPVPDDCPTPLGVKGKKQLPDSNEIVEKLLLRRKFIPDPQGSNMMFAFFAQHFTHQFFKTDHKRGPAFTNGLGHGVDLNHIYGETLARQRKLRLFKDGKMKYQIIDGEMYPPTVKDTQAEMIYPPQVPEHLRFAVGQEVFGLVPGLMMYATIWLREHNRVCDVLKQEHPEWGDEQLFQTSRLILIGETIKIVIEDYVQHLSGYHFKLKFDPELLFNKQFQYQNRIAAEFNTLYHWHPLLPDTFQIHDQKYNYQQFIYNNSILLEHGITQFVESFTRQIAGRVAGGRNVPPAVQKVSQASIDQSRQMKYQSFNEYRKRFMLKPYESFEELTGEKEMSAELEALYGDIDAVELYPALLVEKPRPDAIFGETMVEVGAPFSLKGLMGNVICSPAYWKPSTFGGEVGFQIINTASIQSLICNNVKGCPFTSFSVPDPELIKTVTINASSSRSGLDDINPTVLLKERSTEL
Description: Inhibitory activity against recombinant human Prostaglandin G/H synthase 2

[4] = target: T2, Prostaglandin G/H synthase 2; remark: listed apart in the source
Description: Inhibitory potency against cyclooxygenase-2 in human whole blood assay

T1 sequence (P23219 whole entry): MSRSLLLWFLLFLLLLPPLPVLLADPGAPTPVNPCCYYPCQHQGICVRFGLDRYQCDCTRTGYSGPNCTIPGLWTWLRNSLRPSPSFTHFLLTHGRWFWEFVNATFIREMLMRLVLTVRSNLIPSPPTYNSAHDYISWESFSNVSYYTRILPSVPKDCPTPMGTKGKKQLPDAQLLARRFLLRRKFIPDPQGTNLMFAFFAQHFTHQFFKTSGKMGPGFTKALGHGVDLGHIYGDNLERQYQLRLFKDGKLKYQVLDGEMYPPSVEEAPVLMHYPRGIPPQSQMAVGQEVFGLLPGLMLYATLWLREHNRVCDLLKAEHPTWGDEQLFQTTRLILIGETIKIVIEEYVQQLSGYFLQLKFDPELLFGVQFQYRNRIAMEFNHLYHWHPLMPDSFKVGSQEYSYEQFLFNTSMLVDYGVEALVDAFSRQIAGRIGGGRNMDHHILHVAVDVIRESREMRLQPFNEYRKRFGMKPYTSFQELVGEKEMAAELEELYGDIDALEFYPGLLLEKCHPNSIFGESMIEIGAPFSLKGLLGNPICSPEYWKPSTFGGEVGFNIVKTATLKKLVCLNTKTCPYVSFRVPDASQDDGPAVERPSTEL

IC50 [1] | IC50 [2] | IC50 [3] | IC50 [4] | Compound
> 100 µM | 15.3 µM | 0.23 µM | 0.48 µM | CS(=O)(=O)c1ccc(C2=C(c3ccc(F)c(F)c3)C(=O)OC2)cc1
> 100 µM | 6.5 µM | > 100 µM | 13.5 µM | CC(C(=O)O)c1ccc(CC2CCCC2=O)cc1 (stereo not drawn) [LOXOPROFEN]
